In patent US20160221974A1, “SODIUM CHANNEL MODULATORS FOR THE TREATMENT OF PAIN AND DIABETES” (CHROMOCELL CORPORATION, priority 2013, published 2016):
pIC50: −log10 of the molar value.

target: T1, NaV1.7 (Homo sapiens, UniProt Q15858); experiment: Patchliner Electrophysiological In-Vitro Assay (NaV1.7); format: cell-based; settings: Patchliner patch clamp, HEK293, holding at V1/2
T1 construct: expressed in transfected cells
Description: In vitro assays were performed in recombinant cell line that stably express a heterotrimeric protein of interest from an introduced nucleic acid encoding the alpha subunit (hNav1.7, SCN9A), the beta subunit (SCNB1) and the beta subunit (SCNB2). The cell line was engineered using Human Embryonic Kidney 293 cells as host background. Additional cell lines stably expressing recombinant Nav1.7 or Nav1.5 alpha subunit alone or in combination with various beta subunits can also be used in in-vitro assays.
The recording of sodium current from stable HEK293 cell lines expressing NaV1.7 or NaV1.5 was done on a Patchliner® instrument, Nanion Technologies. The Patchliner® is a fully automated bench-top patch clamp platform and can record simultaneously from up to eight single cells with GΩ seals.
For patch-clamp experiments, cells were grown under standard culturing conditions in Dulbecco's Modified Eagles medium supplemented with 10% fetal bovine serum, glutamine and HEPES. Cells were harvested and kept in suspension for up to 4 hours with no significant change in quality or ability to patch. Whole cell patch clamp recordings were conducted according to Nanion's standard procedure for the Patchliner®. Experiments were conducted at room temperature.
Voltage protocols were designed to establish: 1) peak current amplitude (Imax), 2) test potential (Vmax) and 3) half-inactivation potential (V1/2) for each of the eight individual cells. To determine V1/2, a standard steady-state inactivation protocol was executed using a series of fifteen 500 ms depolarizing pre-pulses in 10 mV increments (starting at −130 mV) and immediately followed by a 10 ms test pulse to Vmax. To estimate test compound affinity to the inactivated state of sodium channel (Ki), the holding potential for each cell was set automatically to the V1/2 calculated from a steady-state inactivation data. The current was activated with the following voltage protocol: holding at V1/2 for 2-5 seconds, return to the −120 mV for 5-10 ms to relieve fast inactivation, stepping to test potential (Vmax) for 10-20 ms. This voltage protocol was repeated every 10 seconds to establish the baseline with 2-3 buffer additions followed by the test compound addition. The dose-dependent inhibition was analyzed using Nanion's Data Analysis Package.

T1 sequence (Q15858 whole entry): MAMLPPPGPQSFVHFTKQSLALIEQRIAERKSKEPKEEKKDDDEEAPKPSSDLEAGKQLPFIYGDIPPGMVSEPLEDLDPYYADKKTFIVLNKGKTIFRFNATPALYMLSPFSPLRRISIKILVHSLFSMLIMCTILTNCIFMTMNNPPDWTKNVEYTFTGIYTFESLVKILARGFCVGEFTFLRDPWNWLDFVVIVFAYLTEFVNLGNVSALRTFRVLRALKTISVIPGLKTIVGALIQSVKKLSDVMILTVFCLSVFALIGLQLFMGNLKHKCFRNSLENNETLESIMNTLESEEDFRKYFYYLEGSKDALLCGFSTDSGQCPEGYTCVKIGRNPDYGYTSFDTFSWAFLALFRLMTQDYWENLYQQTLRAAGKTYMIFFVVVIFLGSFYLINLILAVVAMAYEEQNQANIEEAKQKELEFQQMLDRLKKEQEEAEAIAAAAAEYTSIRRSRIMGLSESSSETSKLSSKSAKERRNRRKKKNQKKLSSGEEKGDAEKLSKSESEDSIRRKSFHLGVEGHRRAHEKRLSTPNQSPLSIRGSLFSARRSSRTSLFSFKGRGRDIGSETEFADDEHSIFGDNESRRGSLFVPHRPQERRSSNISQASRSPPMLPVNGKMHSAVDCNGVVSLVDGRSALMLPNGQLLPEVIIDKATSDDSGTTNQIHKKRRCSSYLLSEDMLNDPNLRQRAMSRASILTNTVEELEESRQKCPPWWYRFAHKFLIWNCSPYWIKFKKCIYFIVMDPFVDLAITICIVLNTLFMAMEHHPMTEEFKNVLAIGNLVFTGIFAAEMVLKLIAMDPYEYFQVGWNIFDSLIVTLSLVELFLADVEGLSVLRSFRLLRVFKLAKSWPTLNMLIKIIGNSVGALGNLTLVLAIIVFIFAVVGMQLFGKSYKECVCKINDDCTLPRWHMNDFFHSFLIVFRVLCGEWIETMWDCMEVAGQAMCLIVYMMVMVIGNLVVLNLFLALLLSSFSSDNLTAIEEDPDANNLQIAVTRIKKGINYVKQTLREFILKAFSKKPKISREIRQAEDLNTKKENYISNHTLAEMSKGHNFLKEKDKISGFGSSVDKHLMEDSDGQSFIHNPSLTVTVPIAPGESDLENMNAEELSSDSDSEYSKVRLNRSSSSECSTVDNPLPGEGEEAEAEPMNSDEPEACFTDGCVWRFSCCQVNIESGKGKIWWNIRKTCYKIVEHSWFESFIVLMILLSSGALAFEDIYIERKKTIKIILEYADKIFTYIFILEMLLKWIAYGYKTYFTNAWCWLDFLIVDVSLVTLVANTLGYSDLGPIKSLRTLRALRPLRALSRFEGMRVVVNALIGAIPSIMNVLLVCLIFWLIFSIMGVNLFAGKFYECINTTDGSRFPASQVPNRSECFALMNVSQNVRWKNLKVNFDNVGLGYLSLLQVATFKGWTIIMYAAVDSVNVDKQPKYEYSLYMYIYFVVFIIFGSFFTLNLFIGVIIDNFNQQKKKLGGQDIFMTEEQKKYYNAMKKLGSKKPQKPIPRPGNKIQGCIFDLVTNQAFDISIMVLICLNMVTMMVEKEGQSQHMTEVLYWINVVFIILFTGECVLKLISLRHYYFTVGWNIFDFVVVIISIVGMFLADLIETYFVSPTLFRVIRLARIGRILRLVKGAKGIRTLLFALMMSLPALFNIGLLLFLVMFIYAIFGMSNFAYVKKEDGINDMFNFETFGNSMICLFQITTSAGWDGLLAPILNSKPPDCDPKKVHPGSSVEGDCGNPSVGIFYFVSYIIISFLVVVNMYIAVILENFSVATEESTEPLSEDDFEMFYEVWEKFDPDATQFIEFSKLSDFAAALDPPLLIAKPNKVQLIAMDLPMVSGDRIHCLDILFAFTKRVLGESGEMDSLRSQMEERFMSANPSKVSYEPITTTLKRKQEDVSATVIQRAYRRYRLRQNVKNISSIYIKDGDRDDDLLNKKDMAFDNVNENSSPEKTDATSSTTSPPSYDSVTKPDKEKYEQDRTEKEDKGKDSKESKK
T1 sequence (Q07699 19-218 partner): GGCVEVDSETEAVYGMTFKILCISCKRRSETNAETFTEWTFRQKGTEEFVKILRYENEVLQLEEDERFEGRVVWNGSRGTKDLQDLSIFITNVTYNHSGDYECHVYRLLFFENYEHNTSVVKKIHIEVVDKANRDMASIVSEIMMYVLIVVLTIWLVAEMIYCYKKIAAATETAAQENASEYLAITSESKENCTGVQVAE
T1 sequence (O60939 30-215 partner): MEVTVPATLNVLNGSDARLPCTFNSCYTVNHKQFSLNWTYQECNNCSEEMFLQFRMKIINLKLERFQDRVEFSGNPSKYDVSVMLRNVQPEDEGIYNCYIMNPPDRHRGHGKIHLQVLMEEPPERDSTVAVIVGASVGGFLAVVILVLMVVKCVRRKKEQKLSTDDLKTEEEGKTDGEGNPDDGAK

Structure (SMILES)	pIC50
O=C(O)CCNCCCc1cc(F)ccc1Oc1cc(F)c(S(=O)(=O)Nc2cscn2)cc1Cl [Compound 25, 3-((3-(2-(2-chloro-5-fluoro-4-(N-(thiazol-4-yl)sulfamoyl)phenoxy)-5-fluorophenyl)propyl)amino)propanoic acid]	6.00 to 7.00
NC(=O)CNCCCc1cc(Cl)ccc1Oc1cc(F)c(S(=O)(=O)Nc2nccs2)cc1Cl [Compound 63, 2-((3-(5-chloro-2-(2-chloro-5-fluoro-4-(N-(thiazol-2-yl)sulfamoyl)phenoxy)phenyl)propyl)amino)acetamide]	> 7.00
CCCCCOC(=O)N(CCCc1cc(Cl)ccc1Oc1cc(F)c(S(=O)(=O)Nc2nccs2)cc1Cl)CC(=O)O [Compound 53, 2-((3-(5-chloro-2-(2-chloro-5-fluoro-4-(N-(thiazol-2-yl)sulfamoyl)phenoxy)phenyl)propyl)((pentyloxy)carbonyl)amino)acetic acid]	> 7.00
CCCN(CCCc1cc(Cl)ccc1Oc1cc(F)c(S(=O)(=O)Nc2nccs2)cc1Cl)CC(=O)O [Compound 65, 2-((3-(5-chloro-2-(2-chloro-5-fluoro-4-(N-(thiazol-2-yl)sulfamoyl)phenoxy)phenyl)propyl)(propyl)amino)acetic acid]	> 7.00
O=S(=O)(Nc1cscn1)c1cc(Cl)c(Oc2ccc(Cl)cc2-c2cnn3c2NCCC3)cc1F [Compound 33, 5-chloro-4-(4-chloro-2-(4,5,6,7-tetrahydropyrazolo[1,5-a]pyrimidin-3-yl)phenoxy)-2-fluoro-N-(thiazol-4-yl)benzenesulfonamide]	6.00 to 7.00
NC(=O)CNCCCc1cc(Cl)ccc1Oc1cc(F)c(S(=O)(=O)Nc2cscn2)cc1F [Compound 69, 2-((3-(5-chloro-2-(2,5-difluoro-4-(N-(thiazol-4-yl)sulfamoyl)phenoxy)phenyl)propyl)amino)acetamide]	> 7.00
C#CCN(CCCc1cc(Cl)ccc1Oc1cc(F)c(S(=O)(=O)Nc2cscn2)cc1Cl)CC(=O)O [Compound 61, 2-((3-(5-chloro-2-(2-chloro-5-fluoro-4-(N-(thiazol-4-yl)sulfamoyl)phenoxy)phenyl)propyl)(prop-2-yn-1-yl)amino)acetic acid]	> 7.00
COC(=O)CNCCCc1cc(Cl)ccc1Oc1cc(F)c(S(=O)(=O)Nc2cscn2)cc1Cl [Compound 24, methyl 2-((3-(5-chloro-2-(2-chloro-5-fluoro-4-(N-(thiazol-4-yl)sulfamoyl)phenoxy)phenyl)propyl)amino)acetate]	> 7.00
O=C(O)CCNCCCc1cc(Cl)ccc1Oc1cc(F)c(S(=O)(=O)Nc2nccs2)cc1Cl [Compound 29, 3-((3-(5-chloro-2-(2-chloro-5-fluoro-4-(N-(thiazol-2-yl)sulfamoyl)phenoxy)phenyl)propyl)amino)propanoic acid]	> 7.00
CC#CCN(CCCc1cc(Cl)ccc1Oc1cc(F)c(S(=O)(=O)Nc2nccs2)cc1Cl)CC(=O)O [Compound 64, 2-(but-2-yn-1-yl(3-(5-chloro-2-(2-chloro-5-fluoro-4-(N-(thiazol-2-yl)sulfamoyl)phenoxy)phenyl)propyl)amino)acetic acid]	> 7.00

target: T2, hNaV1.7 (Homo sapiens, UniProt Q15858); experiment: FDSS Membrane Potential In-Vitro Assay; format: cell-based; settings: stimulation with veratridine and scorpion venom, read-out: NaV1.7 IC50
T2 construct: expressed in transfected cells
T2 sequence (Q15858 whole entry): as the sequence (Q15858 whole entry) above
T2 sequence (Q07699 19-218 partner): as the sequence (Q07699 19-218 partner) above
T2 sequence (O60939 30-215 partner): as the sequence (O60939 30-215 partner) above

Structure (SMILES)	pIC50
O=S(=O)(Nc1nccs1)c1cc(Cl)c(Oc2ccc(Cl)cc2-c2cnn3c2NCCC3)cc1F [Compound 57, 5-chloro-4-(4-chloro-2-(4,5,6,7-tetrahydropyrazolo[1,5-a]pyrimidin-3-yl)phenoxy)-2-fluoro-N-(thiazol-2-yl)benzenesulfonamide]	6.30 to 7.00
O=C(O)CCNCCCc1cc(Cl)ccc1Oc1cc(F)c(S(=O)(=O)Nc2nccs2)cc1F [Compound 43, 3-((3-(5-chloro-2-(2,5-difluoro-4-(N-(thiazol-2-yl)sulfamoyl)phenoxy)phenyl)propyl)amino)propanoic acid]	6.30 to 7.00
CCOC(=O)CN(C)CCCc1cc(Cl)ccc1Oc1cc(F)c(S(=O)(=O)Nc2nccs2)cc1Cl [Compound 68, ethyl 2-((3-(5-chloro-2-(2-chloro-5-fluoro-4-(N-(thiazol-2-yl)sulfamoyl)phenoxy)phenyl)propyl)(methyl)amino)acetate]	6.00 to 6.30
O=S(=O)(Nc1cscn1)c1cc(Cl)c(Oc2ccc(Cl)cc2CCCN2CCc3[nH]ncc3C2)cc1F [Compound 48, 5-chloro-4-(4-chloro-2-(3-(6,7-dihydro-1H-pyrazolo[4,3-c]pyridin-5(4H)-yl)propyl)phenoxy)-2-fluoro-N-(thiazol-4-yl)benzenesulfonamide]	6.00 to 6.30
CCOC(=O)CNCCCc1cc(Cl)ccc1Oc1cc(F)c(S(=O)(=O)Nc2nccs2)cc1Cl [Compound 35, ethyl 2-((3-(5-chloro-2-(2-chloro-5-fluoro-4-(N-(thiazol-2-yl)sulfamoyl)phenoxy)phenyl)propyl)amino)acetate]	6.30 to 7.00
CC(C)OC(=O)CNCCCc1cc(Cl)ccc1Oc1cc(F)c(S(=O)(=O)Nc2nccs2)cc1Cl [Compound 51, isopropyl 2-((3-(5-chloro-2-(2-chloro-5-fluoro-4-(N-(thiazol-2-yl)sulfamoyl)phenoxy)phenyl)propyl)amino)acetate]	6.00 to 6.30
O=S(=O)(Nc1cscn1)c1cc(Cl)c(Oc2ccc(Cl)cc2CCCNc2cc[nH]n2)cc1F [Compound 45, 4-(2-(3-((1H-pyrazol-3-yl)amino)propyl)-4-chlorophenoxy)-5-chloro-2-fluoro-N-(thiazol-4-yl)benzenesulfonamide]	4.70 to 6.00
CC(C)CCOC(=O)CNCCCc1cc(Cl)ccc1Oc1cc(F)c(S(=O)(=O)Nc2nccs2)cc1Cl [Compound 50, isopentyl 2-((3-(5-chloro-2-(2-chloro-5-fluoro-4-(N-(thiazol-2-yl)sulfamoyl)phenoxy)phenyl)propyl)amino)acetate]	6.00 to 6.30
O=S(=O)(Nc1cscn1)c1cc(Cl)c(Oc2ccc(Cl)cc2CCCN2CCn3ccnc3C2)cc1F [Compound 55, 5-chloro-4-(4-chloro-2-(3-(5,6-dihydroimidazo[1,2-a]pyrazin-7(8H)-yl)propyl)phenoxy)-2-fluoro-N-(thiazol-4-yl)benzenesulfonamide]	6.30 to 7.00
O=S(=O)(Nc1nccs1)c1cc(Cl)c(Oc2ccc(Cl)cc2CCCNc2cn[nH]c2)cc1F [Compound 42, 4-(2-(3-((1H-pyrazol-4-yl)amino)propyl)-4-chlorophenoxy)-5-chloro-2-fluoro-N-(thiazol-2-yl)benzenesulfonamide]	4.70 to 6.00
CNC(=O)CNCCCc1cc(Cl)ccc1Oc1cc(F)c(S(=O)(=O)Nc2cscn2)cc1Cl [Compound 46, 2-((3-(5-chloro-2-(2-chloro-5-fluoro-4-(N-(thiazol-4-yl)sulfamoyl)phenoxy)phenyl)propyl)amino)-N-methylacetamide]	6.30 to 7.00
CS(=O)(=O)CCNCCCc1cc(Cl)ccc1Oc1cc(F)c(S(=O)(=O)Nc2nccs2)cc1Cl [Compound 59, 5-chloro-4-(4-chloro-2-(3-((2-(methylsulfonyl)ethyl)amino)propyl)phenoxy)-2-fluoro-N-(thiazol-2-yl)benzenesulfonamide]	6.30 to 7.00
O=C(O)CNC(=O)c1cccc(-c2cc(Cl)ccc2Oc2cc(F)c(S(=O)(=O)Nc3ncns3)cc2Cl)n1 [Compound 7, 2-(6-(2-(4-(N-(1,2,4-thiadiazol-5-yl)sulfamoyl)-2-chloro-5-fluorophenoxy)-5-chlorophenyl)picolinamido)acetic acid]	6.00 to 6.89
